Data on 2 substances can be found in patent US20060246178A1, “Fermented milk product comprising tripeptide vpp and/or ipp” (priority 2003, published 2006).

One experiment deals with ACE (Homo sapiens, UniProt P12821). As to the kind of experiment: ACE inhibition activity assay with fluorogenic substrate Abz-FRK(Dnp)P-OH. Type of experiment: biochemical. Particulars: standard, 5 μM end-concentration.
Experiment [1] has as its target Angiotensin I Converting Enzyme (ACE) (Homo sapiens, UniProt P12821). Particulars: literature (Kohmura 1990; Nakamura 1995); read-out: IC50, the concentration which results in 50% inhibition of the ACE activity; cited from earlier work.

Chain of Angiotensin I Converting Enzyme (ACE) (P12821 30-1306, species assumed): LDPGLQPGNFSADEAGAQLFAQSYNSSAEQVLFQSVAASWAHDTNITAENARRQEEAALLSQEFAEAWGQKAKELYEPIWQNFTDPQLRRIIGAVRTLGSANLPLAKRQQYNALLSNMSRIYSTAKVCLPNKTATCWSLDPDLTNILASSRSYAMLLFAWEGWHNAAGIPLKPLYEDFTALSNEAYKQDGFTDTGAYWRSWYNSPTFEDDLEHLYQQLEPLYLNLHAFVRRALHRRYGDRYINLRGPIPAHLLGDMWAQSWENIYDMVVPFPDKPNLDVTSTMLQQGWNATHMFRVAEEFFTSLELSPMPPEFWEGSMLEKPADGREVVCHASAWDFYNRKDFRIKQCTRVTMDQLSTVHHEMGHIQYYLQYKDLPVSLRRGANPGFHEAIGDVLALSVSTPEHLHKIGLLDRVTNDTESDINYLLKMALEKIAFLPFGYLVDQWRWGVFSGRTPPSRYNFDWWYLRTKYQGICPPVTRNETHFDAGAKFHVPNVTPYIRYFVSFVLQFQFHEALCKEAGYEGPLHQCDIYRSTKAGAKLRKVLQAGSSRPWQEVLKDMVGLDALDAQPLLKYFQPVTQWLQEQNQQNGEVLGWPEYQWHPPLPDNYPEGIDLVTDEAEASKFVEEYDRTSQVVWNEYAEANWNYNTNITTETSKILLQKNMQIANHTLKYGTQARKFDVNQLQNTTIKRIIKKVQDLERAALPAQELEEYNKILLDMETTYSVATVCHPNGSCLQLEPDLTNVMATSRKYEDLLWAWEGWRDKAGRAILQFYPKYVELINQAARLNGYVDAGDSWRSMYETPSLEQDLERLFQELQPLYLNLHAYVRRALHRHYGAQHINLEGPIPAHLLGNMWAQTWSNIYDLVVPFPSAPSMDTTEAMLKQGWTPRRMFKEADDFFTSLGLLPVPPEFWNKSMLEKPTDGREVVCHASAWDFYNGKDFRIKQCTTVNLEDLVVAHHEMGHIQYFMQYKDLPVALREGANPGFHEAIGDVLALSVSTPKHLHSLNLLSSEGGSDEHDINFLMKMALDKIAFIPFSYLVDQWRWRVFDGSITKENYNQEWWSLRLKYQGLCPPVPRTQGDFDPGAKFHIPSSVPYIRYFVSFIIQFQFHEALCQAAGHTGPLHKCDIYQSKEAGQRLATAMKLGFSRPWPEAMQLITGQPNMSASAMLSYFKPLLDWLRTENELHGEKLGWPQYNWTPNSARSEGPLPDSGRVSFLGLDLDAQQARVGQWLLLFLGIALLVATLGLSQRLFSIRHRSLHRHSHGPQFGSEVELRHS
Chain of ACE (P12821 30-1306, species assumed): as above

In the case of Ile-Pro-Pro [IPP], the “inhibition of the ACE activity” value against ACE is given as “about 30%”. Moreover, the IC50 in experiment [1] is 5 µM.

Turning to Val-Pro-Pro [VPP], in experiment [1], the IC50 is 9 µM.
